Data on 1 compound can be found in publication PMC5218480 (PLoS ONE, 2017).

Molecules are shown by their SMILES.

The subject of the experiment is MV-4-11 cells. The experiment can be described thus: Gene expression microarray analysis (Affymetrix PrimeView) and GSEA. The following applies: MV-4-11 cells, 48 hours. The format is cell-based, human. The arrangement: RFU PODN (11730768_x_at) / Fold change /veh PODN (11730768_x_at) / RFU LINC00158 (11744669_a_at) / Fold change /veh LINC00158 (11744669_a_at) / RFU DUSP10 (11751237_a_at) / Fold change /veh DUSP10 (11751237_a_at) / RFU ID3 (11757404_x_at) / Fold change /veh ID3 (11757404_x_at) / RFU PLEKHG5 (11737974_s_at) / Fold change /veh PLEKHG5 (11737974_s_at) / RFU LRRC4B (11730491_at) / Fold change /veh LRRC4B (11730491_at) / RFU GIMAP4 (11747438_a_at) / Fold change /veh GIMAP4 (11747438_a_at) / RFU KRT8 (11758183_x_at) / Fold change /veh KRT8 (11758183_x_at) / RFU CNN1 (11734310_a_at) / Fold change /veh CNN1 (11734310_a_at) / RFU VPS37D (11726825_at) / Fold change /veh VPS37D (11726825_at) / RFU C10orf10 (11716522_x_at) / Fold change /veh C10orf10 (11716522_x_at) / RFU KIR2DL2 /// KIR2DL4 /// KIR2DL5A /// KIR2DL5B /// KIR2DS1 /// KIR2DS2 /// KIR2DS3 /// KIR2DS4 /// KIR3DL3 /// KIR3DL3 /// KIR3DS1 (11738374_at) / Fold change /veh KIR2DL2 /// KIR2DL4 /// KIR2DL5A /// KIR2DL5B /// KIR2DS1 /// KIR2DS2 /// KIR2DS3 /// KIR2DS4 /// KIR3DL3 /// KIR3DL3 /// KIR3DS1 (11738374_at) / RFU C1QL1 (11718748_at) / Fold change /veh C1QL1 (11718748_at) / RFU TMPRSS4 (11747572_a_at) / Fold change /veh TMPRSS4 (11747572_a_at) / RFU HAMP (11756126_x_at) / Fold change /veh HAMP (11756126_x_at) / RFU RNFT2 (11725882_a_at) / Fold change /veh RNFT2 (11725882_a_at) / RFU NR4A2 (11747474_a_at) / Fold change /veh NR4A2 (11747474_a_at) / RFU ABCC12 (11746883_a_at) / Fold change /veh ABCC12 (11746883_a_at) / RFU TMEM136 (11760407_x_at) / Fold change /veh TMEM136 (11760407_x_at) / RFU CLDN22 /// WWC2 (11732394_at) / Fold change /veh CLDN22 /// WWC2 (11732394_at) / RFU HLA-DPB1 (11760878_x_at) / Fold change /veh HLA-DPB1 (11760878_x_at) / RFU SPINT1 (11716480_a_at) / Fold change /veh SPINT1 (11716480_a_at) / RFU GAP43 (11754022_s_at) / Fold change /veh GAP43 (11754022_s_at) / RFU A4GNT (11735810_at) / Fold change /veh A4GNT (11735810_at) / RFU PRB3 (11715151_x_at) / Fold change /veh PRB3 (11715151_x_at) / RFU TUBB4B (11761932_at) / Fold change /veh TUBB4B (11761932_at) / RFU CAPN14 (11732068_a_at) / Fold change /veh CAPN14 (11732068_a_at) / RFU TMCC2 (11721928_a_at) / Fold change /veh TMCC2 (11721928_a_at) / RFU IRGQ (11745062_a_at) / Fold change /veh IRGQ (11745062_a_at) / RFU FAM174B (11720279_a_at) / Fold change /veh FAM174B (11720279_a_at) / RFU TMPRSS4 (11748680_a_at) / Fold change /veh TMPRSS4 (11748680_a_at) / RFU FAM212B (11763350_a_at) / Fold change /veh FAM212B (11763350_a_at) / RFU PLEKHG5 (11743358_a_at) / Fold change /veh PLEKHG5 (11743358_a_at) / RFU ZSCAN30 (11745921_a_at) / Fold change /veh ZSCAN30 (11745921_a_at) / RFU CMKLR1 (11741424_a_at) / Fold change /veh CMKLR1 (11741424_a_at) / RFU LOC101060620 /// MAPK8IP1 (11723275_at) / Fold change /veh LOC101060620 /// MAPK8IP1 (11723275_at) / RFU SPTSSB (11747773_x_at) / Fold change /veh SPTSSB (11747773_x_at) / RFU PRSS12 (11739890_at) / Fold change /veh PRSS12 (11739890_at) / RFU BIN1 (11741810_x_at) / Fold change /veh BIN1 (11741810_x_at) / RFU WNT11 (11732464_a_at) / Fold change /veh WNT11 (11732464_a_at) / RFU C10orf10 (11716521_a_at) / Fold change /veh C10orf10 (11716521_a_at) / RFU C5orf56 (11738089_at) / Fold change /veh C5orf56 (11738089_at) / RFU CYB561 (11721691_x_at) / Fold change /veh CYB561 (11721691_x_at) / RFU ANKRD19P (11752326_a_at) / Fold change /veh ANKRD19P (11752326_a_at) / RFU OR2T12 /// OR2T33 /// OR2T8 (11738714_s_at) / Fold change /veh OR2T12 /// OR2T33 /// OR2T8 (11738714_s_at) / RFU VCAN (11748164_a_at) / Fold change /veh VCAN (11748164_a_at) / RFU JSRP1 (11732532_at) / Fold change /veh JSRP1 (11732532_at) / RFU KRTAP10-11 (11738290_x_at) / Fold change /veh KRTAP10-11 (11738290_x_at) / RFU MYO3A (11730013_a_at) / Fold change /veh MYO3A (11730013_a_at) / RFU EBF3 (11725865_a_at) / Fold change /veh EBF3 (11725865_a_at) / RFU CAMK2N1 (11719241_x_at) / Fold change /veh CAMK2N1 (11719241_x_at) / RFU C5orf56 (11738088_a_at) / Fold change /veh C5orf56 (11738088_a_at) / RFU OLFML3 (11715873_a_at) / Fold change /veh OLFML3 (11715873_a_at) / RFU LOC100653217 /// NTM (11731650_a_at) / Fold change /veh LOC100653217 /// NTM (11731650_a_at) / RFU MAPK11 (11762145_a_at) / Fold change /veh MAPK11 (11762145_a_at) / RFU FIZ1 (11724087_x_at) / Fold change /veh FIZ1 (11724087_x_at) / RFU OASL (11726364_x_at) / Fold change /veh OASL (11726364_x_at) / RFU SOX15 (11748057_x_at) / Fold change /veh SOX15 (11748057_x_at) / RFU CD79A (11719716_a_at) / Fold change /veh CD79A (11719716_a_at) / RFU HIST1H1D (11736915_at) / Fold change /veh HIST1H1D (11736915_at) / RFU CASKIN2 (11723855_a_at) / Fold change /veh CASKIN2 (11723855_a_at) / RFU LOC730098 (11760151_x_at) / Fold change /veh LOC730098 (11760151_x_at) / RFU OR4N2 (11742367_at) / Fold change /veh OR4N2 (11742367_at) / RFU PRRT2 (11749266_a_at) / Fold change /veh PRRT2 (11749266_a_at) / RFU SNX32 (11753110_a_at) / Fold change /veh SNX32 (11753110_a_at) / RFU CDHR5 (11726645_a_at) / Fold change /veh CDHR5 (11726645_a_at) / RFU RCAN1 (11760418_a_at) / Fold change /veh RCAN1 (11760418_a_at) / RFU FAM167A (11723789_a_at) / Fold change /veh FAM167A (11723789_a_at) / RFU FAM26E (11764081_at) / Fold change /veh FAM26E (11764081_at) / RFU ISYNA1 (11749810_s_at) / Fold change /veh ISYNA1 (11749810_s_at) / RFU ACY1 (11761880_at) / Fold change /veh ACY1 (11761880_at) / RFU 11764098_at / Fold change /veh 11764098_at / RFU SAMD14 (11745864_x_at) / Fold change /veh SAMD14 (11745864_x_at) / RFU NPB (11741838_a_at) / Fold change /veh NPB (11741838_a_at) / RFU TMPRSS6 (11731388_a_at) / Fold change /veh TMPRSS6 (11731388_a_at) / RFU KRTAP10-2 (11738614_at) / Fold change /veh KRTAP10-2 (11738614_at) / RFU ARHGAP8 /// PRR5-ARHGAP8 (11727945_x_at) / Fold change /veh ARHGAP8 /// PRR5-ARHGAP8 (11727945_x_at) / RFU KRTAP5-7 /// NADSYN1 (11734609_at) / Fold change /veh KRTAP5-7 /// NADSYN1 (11734609_at) / RFU RASL12 (11751679_a_at) / Fold change /veh RASL12 (11751679_a_at) / RFU CDKN2B (11736163_a_at) / Fold change /veh CDKN2B (11736163_a_at) / RFU PRF1 (11729649_at) / Fold change /veh PRF1 (11729649_at) / RFU, ZNF638 /// ZNF638-IT1 / Fold change vs veh, ZNF638 /// ZNF638-IT1 / RFU, PANK3 / Fold change vs veh, PANK3 / RFU, SH3YL1 / Fold change vs veh, SH3YL1 / RFU, ZEB2 / Fold change vs veh, ZEB2 / RFU, NRIP1 / Fold change vs veh, NRIP1 / RFU, PTTG1IP / Fold change vs veh, PTTG1IP / RFU, CAPN2 / Fold change vs veh, CAPN2 / RFU, MED14 / Fold change vs veh, MED14 / RFU, SNORA58 / Fold change vs veh, SNORA58 / RFU, C1orf63 / Fold change vs veh, C1orf63 / RFU, LRRFIP1 / Fold change vs veh, LRRFIP1 / RFU, NDUFAF7 / Fold change vs veh, NDUFAF7 / RFU, SLC12A2 / Fold change vs veh, SLC12A2 / RFU, IBTK / Fold change vs veh, IBTK / RFU, ESF1 / Fold change vs veh, ESF1 / Fold change vs veh, TMEM50B / RFU, TAOK1 / Fold change vs veh, TAOK1 / RFU, ACBD3 / Fold change vs veh, ACBD3 / RFU, TMA16 / Fold change vs veh, TMA16 / RFU, RWDD3 / Fold change vs veh, RWDD3 / RFU, BCAT1 / Fold change vs veh, BCAT1 / RFU, EDEM3 / Fold change vs veh, EDEM3 / RFU, TMEM33 / Fold change vs veh, TMEM33 / RFU, WDR75 / Fold change vs veh, WDR75 / RFU, AHCTF1 / Fold change vs veh, AHCTF1 / RFU, TFRC / Fold change vs veh, TFRC / RFU, ZDHHC17 / Fold change vs veh, ZDHHC17 / RFU, NOM1 / Fold change vs veh, NOM1 / RFU, ARL8B / Fold change vs veh, ARL8B / RFU, ZBTB11 / Fold change vs veh, ZBTB11 / RFU, TAMM41 / Fold change vs veh, TAMM41 / RFU, KIAA1704 /// LOC100996395 / Fold change vs veh, KIAA1704 /// LOC100996395 / RFU, ING1 / Fold change vs veh, ING1 / RFU, TRMT61B / Fold change vs veh, TRMT61B / RFU, FUBP3 / Fold change vs veh, FUBP3 / RFU, TP53 / Fold change vs veh, TP53 / RFU, TNKS2 / Fold change vs veh, TNKS2 / RFU, ZFP14 / Fold change vs veh, ZFP14 / RFU, ACTR2 / Fold change vs veh, ACTR2 / RFU, PPP3R1 / Fold change vs veh, PPP3R1 / RFU, PIK3R1 / Fold change vs veh, PIK3R1 / RFU, HNRNPA1 / Fold change vs veh, HNRNPA1 / RFU, RNF170 / Fold change vs veh, RNF170 / RFU, ZNF28 / Fold change vs veh, ZNF28 / RFU, RNGTT / Fold change vs veh, RNGTT / RFU, OGT / Fold change vs veh, OGT / RFU, BRD1 / Fold change vs veh, BRD1 / RFU, MARS / Fold change vs veh, MARS / RFU, ZNF655 / Fold change vs veh, ZNF655 / RFU, FAHD1 / Fold change vs veh, FAHD1 / RFU, BDP1 / Fold change vs veh, BDP1 / RFU, LRRCC1 / Fold change vs veh, LRRCC1 / RFU, ARID1A / Fold change vs veh, ARID1A / RFU, ZNF146 / Fold change vs veh, ZNF146 / RFU, ZNF330 / Fold change vs veh, ZNF330 / RFU, GPN3 / Fold change vs veh, GPN3 / RFU, C9orf123 / Fold change vs veh, C9orf123 / RFU, N4BP2L2 / Fold change vs veh, N4BP2L2 / RFU, ARFIP1 / Fold change vs veh, ARFIP1 / RFU, FAM179B / Fold change vs veh, FAM179B / RFU, BCL10 / Fold change vs veh, BCL10 / RFU, UHRF1BP1L / Fold change vs veh, UHRF1BP1L / RFU, BET1 / Fold change vs veh, BET1 / RFU, CNOT2 / Fold change vs veh, CNOT2 / RFU, ZNF268 / Fold change vs veh, ZNF268 / Fold change vs veh, ZNF507 / RFU, DGCR2 / Fold change vs veh, DGCR2 / RFU, WDSUB1 / Fold change vs veh, WDSUB1 / Fold change vs veh, HSP90B1 /// MIR3652 / RFU, ADSS / Fold change vs veh, ADSS / RFU, GK / Fold change vs veh, GK / RFU, ZNF148 / Fold change vs veh, ZNF148 / RFU, TAF9 / Fold change vs veh, TAF9 / RFU, SLC1A5 / Fold change vs veh, SLC1A5 / RFU, SLMO2 / Fold change vs veh, SLMO2 / RFU, ABCC4 / Fold change vs veh, ABCC4 / RFU, LOC101060439 /// RAP1B / Fold change vs veh, LOC101060439 /// RAP1B / RFU, RFX7 / Fold change vs veh, RFX7 / RFU, GTPBP10 / Fold change vs veh, GTPBP10 / RFU, CNEP1R1 / Fold change vs veh, CNEP1R1 / RFU, BIVM-ERCC5 /// ERCC5 / Fold change vs veh, BIVM-ERCC5 /// ERCC5 / RFU, ILF3 / Fold change vs veh, ILF3 / RFU 11762660_at / Fold change /veh 11762660_at / RFU VCAN (11757783_s_at) / Fold change /veh VCAN (11757783_s_at) / RFU DDX43 (11728927_at) / Fold change /veh DDX43 (11728927_at) / RFU KRT8 (11758188_x_at) / Fold change /veh KRT8 (11758188_x_at) / RFU NKD1 (11759106_at) / Fold change /veh NKD1 (11759106_at) / RFU SRD5A1 (11742802_a_at) / Fold change /veh SRD5A1 (11742802_a_at) / RFU TPSAB1 /// TPSB2 (11721975_s_at) / Fold change /veh TPSAB1 /// TPSB2 (11721975_s_at) / RFU GSTM3 (11746129_a_at) / Fold change /veh GSTM3 (11746129_a_at) / RFU IL23R (11737362_x_at) / Fold change /veh IL23R (11737362_x_at) / RFU TMEM51 (11727254_a_at) / Fold change /veh TMEM51 (11727254_a_at) / RFU PIWIL2 (11732686_x_at) / Fold change /veh PIWIL2 (11732686_x_at) / RFU ORM1 (11744905_x_at) / Fold change /veh ORM1 (11744905_x_at) / RFU CCDC152 (11743942_at) / Fold change /veh CCDC152 (11743942_at) / RFU ECM1 (11717891_a_at) / Fold change /veh ECM1 (11717891_a_at) / RFU IL23R (11748794_a_at) / Fold change /veh IL23R (11748794_a_at) / RFU TNFAIP8L3 (11732012_x_at) / Fold change /veh TNFAIP8L3 (11732012_x_at) / RFU MBOAT4 (11741988_at) / Fold change /veh MBOAT4 (11741988_at) / RFU 11764193_at / Fold change /veh 11764193_at / RFU TMEM53 (11763286_at) / Fold change /veh TMEM53 (11763286_at) / RFU MAGEB2 (11727129_at) / Fold change /veh MAGEB2 (11727129_at) / RFU TMEM200A (11744735_a_at) / Fold change /veh TMEM200A (11744735_a_at) / RFU CCDC152 (11751479_a_at) / Fold change /veh CCDC152 (11751479_a_at) / RFU FAM211A (11726209_a_at) / Fold change /veh FAM211A (11726209_a_at) / RFU RGS16 (11746705_a_at) / Fold change /veh RGS16 (11746705_a_at) / RFU VCAN (11755009_s_at) / Fold change /veh VCAN (11755009_s_at) / RFU RHOB (11743442_s_at) / Fold change /veh RHOB (11743442_s_at) / RFU RGS16 (11720943_a_at) / Fold change /veh RGS16 (11720943_a_at) / RFU RGS16 (11720944_at) / Fold change /veh RGS16 (11720944_at) / RFU, VPS4B / Fold change vs veh, VPS4B / RFU, CREB1 / Fold change vs veh, CREB1 / RFU, DNAJC13 / Fold change vs veh, DNAJC13 / RFU, GNAQ / Fold change vs veh, GNAQ / RFU, CDK5R1 / Fold change vs veh, CDK5R1 / RFU, ZRANB3 / Fold change vs veh, ZRANB3 / RFU, CUL4A / Fold change vs veh, CUL4A / RFU, CCNY / Fold change vs veh, CCNY / RFU, UFL1 / Fold change vs veh, UFL1 / RFU, COG3 / Fold change vs veh, COG3 / RFU, DIAPH2 / Fold change vs veh, DIAPH2 / RFU, SKA2 / Fold change vs veh, SKA2 / RFU, AFF3 / Fold change vs veh, AFF3 / RFU, LMF1 / Fold change vs veh, LMF1 / RFU, IPO11 / Fold change vs veh, IPO11 / RFU, DFFB / Fold change vs veh, DFFB / RFU, FOXP1 / Fold change vs veh, FOXP1 / RFU, CARD8 / Fold change vs veh, CARD8 / RFU, STRN3 / Fold change vs veh, STRN3 / RFU, ADK / Fold change vs veh, ADK / RFU, RASSF2 / Fold change vs veh, RASSF2 / RFU, WIPF1 / Fold change vs veh, WIPF1 / RFU, LARP1B / Fold change vs veh, LARP1B / RFU, RASA1 / Fold change vs veh, RASA1 / RFU, RB1 / Fold change vs veh, RB1 / RFU, PPFIA1 / Fold change vs veh, PPFIA1 / RFU, MAT2A / Fold change vs veh, MAT2A / RFU, CCT5 / Fold change vs veh, CCT5 / RFU, WDR92 / Fold change vs veh, WDR92 / RFU, CUX1 / Fold change vs veh, CUX1 / RFU, TTC7A / Fold change vs veh, TTC7A / RFU, TMEM135 / Fold change vs veh, TMEM135 / RFU, DEPTOR / Fold change vs veh, DEPTOR / RFU, CPM / Fold change vs veh, CPM / RFU, DNAJB6 / Fold change vs veh, DNAJB6 / RFU, CACNA2D3 / Fold change vs veh, CACNA2D3 / RFU, DTX4 / Fold change vs veh, DTX4 / RFU, TFCP2 / Fold change vs veh, TFCP2 / RFU, GMCL1 /// GMCL1P1 / Fold change vs veh, GMCL1 /// GMCL1P1 / RFU, AEBP2 / Fold change vs veh, AEBP2 / RFU, SNHG1 /// SNORD22 /// SNORD25 /// SNORD26 /// SNORD27 /// SNORD28 /// SNORD29 /// SNORD31 / Fold change vs veh, SNHG1 /// SNORD22 /// SNORD25 /// SNORD26 /// SNORD27 /// SNORD28 /// SNORD29 /// SNORD31 / Fold change (Aza/veh), C12orf56 (ProbeSet 11735607_a_at) / Fold change (ACY-1035/veh), C12orf56 (ProbeSet 11735607_a_at) / Fold change (Aza/veh), FGFR1OP (ProbeSet 11751329_s_at) / Fold change (ACY-1035/veh), FGFR1OP (ProbeSet 11751329_s_at) / Fold change (Aza/veh), VPS36 (ProbeSet 11739960_a_at) / Fold change (ACY-1035/veh), VPS36 (ProbeSet 11739960_a_at) / RFU SYPL1 (11715823_x_at) / Fold change /veh SYPL1 (11715823_x_at) / RFU IGFBP7 (11715501_s_at) / Fold change /veh IGFBP7 (11715501_s_at) / RFU REEP3 (11722064_at) / Fold change /veh REEP3 (11722064_at) / RFU IGLL1 (11728026_x_at) / Fold change /veh IGLL1 (11728026_x_at): dose or concentration left out as unconfirmed.

`Nc1ncn([C@@H]2O[C@H](CO)[C@@H](O)[C@H]2O)c(=O)n1` [azacitidine]: the “RFU TMPRSS4 (11747572_a_at)” value was determined as 53.17 RFU.
